The source of these data is patent US20020115642A1, “Beta-lactam antibiotics” (priority 2000, published 2002).

In one experiment the test system is Staphylococcus aureus. In words: Susceptibility testing (MIC, modified NCCLS method). Type of experiment: cell-based. On the procedure: (§1) The NCCLS (National Committee for Clinical Laboratory Standards) method to determine MIC's of antimicrobial compounds was modified for high-throughput screening. All stocks of tested compounds were prepared in either water or in dimethylsulfoxide (DMSO), depending on the solubility. […] Briefly 20 2-fold serial dilutions of testing compounds from the highest concentration were made in a 384-well microtiter plate. Each well was inoculated with testing bacteria in broth to a final concentration of approximately 1-1.5×10^6 cells/ml. Bacterial growth was determined by the increase of optical density at 600 nm using a microplate reader (Tecan SpectraFluor Plus).

The next experiment deals with K. pneumoniae. The description is as above. Format: cell-based, Klebsiella pneumoniae. On the procedure:
as §1

In another experiment the test system is P. aeruginosa. The experiment is described as above. Format: cell-based, Pseudomonas aeruginosa. On the procedure:
as §1

The next experiment has as its system E coli R(Tem1). In words: Inhibition of bacterial growth (IC50, OD600). Format: cell-based. Conditions: for IC50 ratio N/R: N versus R (Tem1); for IC50: Cell R (Tem1). On the procedure:
(§2) Compounds of the invention were tested for their ability to inhibit the growth of β-lactam sensitive and resistant bacteria by contacting samples of such cells with various dilutions of the compositions, incubating the cells at 37° C. in the presence of these compositions and then measuring the number of viable cells present in each sample.
(§3) Two compounds of the invention were tested, Compound (9) and Compound (1l). Incubation of bacterial cells was performed for two time periods, 10 hours and 20 hours. Four E. coli strains were used for the test. These strains were all derived from the strain NovaBlue (NovaGen Inc., Madison, Wis.). E. coli N is a normal, β-lactam sensitive strain. E coli R(Tem1) is a β-lactam resistant strain with a β-lactamase gene on a plasmid. E. coli C(Tem4O-15) is a β-lactam resistant strain with a β-lactam inhibitor resistant β-lactamase gene, and E. coli C(Tem3 1-27) is β-lactam resistant strain with an alternative β-lactam inhibitor resistant β-lactamase gene.
(§4) The various E. coli strains were each treated with dilutions of the compounds of the invention. […] The number of viable cells at each time point was determined by measuring the OD600 of each cell sample.
(§5) After measuring the number of viable cells present, the IC50 for each sample was determined. […] In addition, both compounds were effective at inhibiting the growth of both antibiotic sensitive and resistant bacterial cells.

The test system of a further experiment is E. coli C(Tem3 1-27). The experiment in a line: Inhibition of bacterial growth (IC50, OD600). Format: cell-based. As to conditions: for IC50: Cell C (Tem31-27). How it is done:
as §2, §3, §4, §5

For another experiment, the system named is E. coli C(Tem4O-15). The experiment in a line: Inhibition of bacterial growth (IC50, OD600). Format: cell-based. Conditions: for IC50: Cell C (Tem40-15). On the procedure:
as §2, §3, §4, §5

The next experiment has as its system E. coli N. In words: Inhibition of bacterial growth (IC50, OD600). Format: cell-based. On the procedure: as §2, §3, §4, §5
A further experiment concerns E. cloacae. In words: Susceptibility testing (MIC, modified NCCLS method). Format: cell-based, Enterobacter cloacae. As to conditions: E. cloacae (1). How it is done:
as §1

In a further experiment the test system is E. aerogenes. Described as above. As to conditions: E. aerogenes (5). Format: cell-based, Enterobacter aerogenes. How it is done: as §1
For experiment [1], the system named is S. aureus clinical isolates. The experiment in a line: MIC by agar dilution, recent clinical isolates (UCSD Medical Center). Conditions: MSSA (14). Format: cell-based, Staphylococcus aureus. How it is done: Growth of all 14 isolates of MSSA was inhibited by Compound (9) at the lowest tested concentration (0.08 μg/ml) (See Table 6, below).
In general terms: In agar dilution the substance is mixed into plates at graded concentrations.

Experiment [2] has as its system S. aureus clinical isolates. The experiment is described as above. Format: cell-based, Staphylococcus aureus. As to conditions: MRSA (17).
For another experiment, the system named is E. faecalis. The experiment in a line: Susceptibility testing (MIC, modified NCCLS method). Conditions: Enterococcus faecalis, read-out: GM* MIC (geometric mean). Format: cell-based, Enterococcus faecalis. How it is done: as §1
The test system of another experiment is S. epidermidis. The experiment is described as above. Format: cell-based, Staphylococcus epidermidis. Conditions: for MIC: Staphylococcus epidermidis. How it is done:
as §1

The subject of the next experiment is E. faecium. Described as above. Type of experiment: cell-based, Enterococcus faecium. As to conditions: Enterococcus faecium, read-out: GM* MIC (geometric mean). On the procedure: as §1
Experiment [3] deals with Vancomycin-resistant E. faecalis or E. faecium. Described as above. Format: cell-based, Enterococcus faecalis, Enterococcus faecium. How it is done: as §1
Setting [4] is: read-out: IC50 10 hours, 10 hours.
Where [5] appears, read: read-out: IC50 20 hours, 20 hours.
The mark [6] stands for this setting: read-out: IC50 10 hours, Cell N, 10 hours, 37° C.

In brackets after ≈: the same amount, converted by molar mass. Like-named read-outs stand apart in the source and are kept apart here.

A word on the IC50: it is the concentration needed to halve the response being measured. Turning to “3-(2-(2,4-Dichlorophenoxy)-5-chlorophenoxy)methyl-7-(2-thienylacetamido)-1-oxo-3-cephem-4-carboxylate [Compound 11]”, the MIC against Staphylococcus aureus (S. aureus ATCC 700260) is 0.0078 µg/mL; in the experiment on Staphylococcus aureus (S. aureus ATCC 700699), 1 µg/mL; in the experiment on K. pneumoniae (K. pneumoniae ATCC 700721), 4 µg/mL; in the experiment on P. aeruginosa (P. aeruginosa ATCC 21726) it was more than 64 µg/mL; against P. aeruginosa (P. aeruginosa ATCC 29872) it was more than 64 µg/mL. In addition, the “IC50 ratio N/R” value in the experiment on E coli R(Tem1) (10 hours) is recorded as “N/R = 1388x”; with E coli R(Tem1) (20 hours) it was “N/R = 120x”. In addition, the IC50 in the experiment on E coli R(Tem1) (setting [4]) came to 0.00539 µM; in the experiment with E coli R(Tem1) (setting [5]), 0.0353 µM; with E. coli C(Tem3 1-27) (setting [4]), 1.11 µM; in the experiment on E. coli C(Tem3 1-27) (setting [5]), 1.48 µM; in the experiment with E. coli C(Tem4O-15) (setting [4]), 0.369 µM; in the experiment on E. coli C(Tem4O-15) (setting [5]) it was 0.653 µM. Besides, the IC50 came to 7.48 µM in the experiment on E. coli N (setting [6]) and 4.24 µM with E. coli N (read-out: IC50 20 hours, Cell N, 20 hours). Further, the “IC50 ratio (C/R or N/C)” value with E. coli C(Tem3 1-27) (10 hours, line of C (Tem31-27)) was “N/C = 6.7x”; with E. coli C(Tem4O-15) (10 hours, line of C (Tem40-15)) it was “N/C = 20x”. Besides, the “IC50 ratio (given C/R or N/R)” value in the experiment on E. coli C(Tem3 1-27) (20 hours, line of C (Tem31-27)) is “N/R = 2.9x”; in the experiment on E. coli C(Tem4O-15) (20 hours, line of C (Tem40-15)), “N/R = 6.5x”.
In the case of `CC1(C)S[C@@H]2[C@H](NC(=O)[C@H](N)c3ccccc3)C(=O)N2[C@H]1C(=O)O` [Ampicillin, ampicillin, reference compound], the MIC range against E. cloacae was 31 µg/mL (≈ 88.7 µM); with E. aerogenes it was 61 to 7813 µg/mL. The MIC in the experiment with E. cloacae (Enterobacter cloacae, read-out: GM* MIC (geometric mean)) came to 31 µg/mL (≈ 88.7 µM); with E. aerogenes (Klebsiella aerogenes, read-out: GM* MIC (geometric mean)), 488 µg/mL (≈ 1400 µM); in the experiment with K. pneumoniae (Klebsiella pneumoniae, K. pneumoniae (5), read-out: GM* MIC (geometric mean)) it was 27200 µg/mL (≈ 77800 µM). Also, the half-inhibitory concentration (IC50) with E. coli N (Escherichia coli, 10 h, read-out: IC50 10 hours, Cell N, 10 hours, 37° C.) came to 9.71 µM; in the experiment with E. coli N (Escherichia coli, 20 h, read-out: IC50 20 hours, Cell N, 20 hours), 7.47 µM; in the experiment with E. coli N (setting [6]), 7.88 µM.
The term MIC50 denotes an inhibitory concentration at the 50% level, which refers to growth in some studies and to a panel of isolates in others. One may read the MIC90 as an inhibitory concentration at the 90% level, which refers to growth in some studies and to a panel of isolates in others. Low values mean higher susceptibility, high ones lower susceptibility. In the case of `Cc1nnc(SCC2=C(C(=O)O)N3C(=O)[C@@H](NC(=O)Cn4cnnn4)[C@H]3SC2)s1` [Cefazolin, reference compound], the MIC range in [1] was 0.08 to 0.6 µg/mL; in experiment [2], 5 µg/mL (≈ 11 µM). Also, the results for the MIC50 in [1] (Staphylococcus aureus) and in experiment [2] (Staphylococcus aureus) were 0.16 µg/mL (≈ 0.352 µM) and more than 5 µg/mL, respectively. For the same compound, the results for the MIC90 in [1] (Staphylococcus aureus) and in experiment [2] (Staphylococcus aureus) were 0.3 µg/mL (≈ 0.66 µM) and more than 5 µg/mL, respectively.
`CN[C@H](CC(C)C)C(=O)N[C@H]1C(=O)N[C@@H](CC(N)=O)C(=O)N[C@H]2C(=O)N[C@H]3C(=O)N[C@H](C(=O)N[C@H](C(=O)O)c4cc(O)cc(O)c4-c4cc3ccc4O)[C@H](O)c3ccc(c(Cl)c3)Oc3cc2cc(c3O[C@@H]2O[C@H](CO)[C@@H](O)[C@H](O)[C@H]2O[C@H]2C[C@](C)(N)[C@H](O)[C@H](C)O2)Oc2ccc(cc2Cl)[C@H]1O` [Vancomycin, vancomycin, reference compound]: the MIC in the experiment on Staphylococcus aureus (Staphylococcus aureus, ATCC11632, ATCC 11632, methicillin-sensitive, β-lactamase Neg./Pos.) turned out to be 0.25 µg/mL (≈ 0.173 µM); against Staphylococcus aureus (Staphylococcus aureus, ATCC13301, ATCC 13301, methicillin-sensitive, β-lactamase Positive), 0.25 µg/mL (≈ 0.173 µM); in the experiment with Staphylococcus aureus (Staphylococcus aureus, ATCC14154, ATCC 14154, methicillin-sensitive, β-lactamase Positive), 0.5 µg/mL (≈ 0.345 µM); in the experiment with Staphylococcus aureus (Staphylococcus aureus, ATCC33591, ATCC 33591, methicillin-resistant, β-lactamase Positive), 0.25 µg/mL (≈ 0.173 µM); in the experiment with Staphylococcus aureus (Staphylococcus aureus, ATCC33592, ATCC 33592, methicillin-sensitive, β-lactamase Positive), 0.5 µg/mL (≈ 0.345 µM); in the experiment with Staphylococcus aureus (Staphylococcus aureus, ATCC33593, ATCC 33593, methicillin-resistant, β-lactamase Positive), 0.5 µg/mL (≈ 0.345 µM). Further, the MIC is 0.5 µg/mL (≈ 0.345 µM) in the experiment with Staphylococcus aureus (Staphylococcus aureus, ATCC33594, ATCC 33594, methicillin-sensitive, β-lactamase Positive); 0.5 µg/mL (≈ 0.345 µM) against Staphylococcus aureus (Staphylococcus aureus, ATCC43300, ATCC 43300, methicillin-sensitive, β-lactamase Neg./Pos.); 1 µg/mL (≈ 0.69 µM) against Staphylococcus aureus (Staphylococcus aureus, ATCC700260, ATCC 700260, methicillin-sensitive, β-lactamase Positive); 2 µg/mL (≈ 1.38 µM) against Staphylococcus aureus (Staphylococcus aureus, ATCC700698, ATCC 700698, methicillin-resistant, β-lactamase Negative); 4 µg/mL (≈ 2.76 µM) with Staphylococcus aureus (Staphylococcus aureus, ATCC700699, ATCC 700699, methicillin-resistant, β-lactamase Negative); 8 µg/mL (≈ 5.52 µM) with Staphylococcus aureus (Staphylococcus aureus, ATCC700787, ATCC 700787, methicillin-resistant, β-lactamase Positive). Further, the MIC against Staphylococcus aureus (Staphylococcus aureus, ATCC700788, ATCC 700788, methicillin-resistant, β-lactamase Positive) was 2 µg/mL (≈ 1.38 µM); with Staphylococcus aureus (Staphylococcus aureus, ATCC700789, ATCC 700789, methicillin-resistant, β-lactamase Positive), 2 µg/mL (≈ 1.38 µM); in the experiment on Staphylococcus aureus (Staphylococcus aureus, MRSA, read-out: Geometric mean of MIC, MRSA tested (7)), 1.64 µg/mL (≈ 1.13 µM); in the experiment with Staphylococcus aureus (Staphylococcus aureus, MSSA, read-out: Geometric mean of MIC, MSSA tested (7)), 0.36 µg/mL (≈ 0.248 µM); in the experiment with Staphylococcus aureus (Staphylococcus aureus, read-out: Geometric mean of MIC, S. aureus (14)), 0.86 µg/mL (≈ 0.593 µM); in the experiment on Staphylococcus aureus (Staphylococcus aureus, read-out: Geometric mean of MIC, S. aureus β-lactamase negative (2)), 2.83 µg/mL (≈ 1.95 µM). Further, the MIC in the experiment with Staphylococcus aureus (Staphylococcus aureus, read-out: Geometric mean of MIC, S. aureus β-lactamase positive (12)) is 0.94 µg/mL (≈ 0.649 µM); in the experiment on E. faecalis, more than 6.41 µg/mL; with S. epidermidis (read-out: GM* MIC (geometric mean)), 1.74 µg/mL (≈ 1.2 µM); in the experiment on S. epidermidis (read-out: MICs of heterogeneous vancomycin resistant strains) it was 2 µg/mL (≈ 1.38 µM); with E. faecium, more than 3.49 µg/mL; in experiment [3] (Enterococcus, VRE, read-out: GM* MIC (geometric mean)), more than 47.4 µg/mL. The compound further had an MIC range with S. epidermidis (S. epidermidis (5)) of 1 to 2 µg/mL. Also, in [3] (VRE (5)), the “GM* MIC (geometric mean)” value is more than 47.4 µg/mL.
